# Experimental data: ChEMBL document CHEMBL5143638, “Natural aloe emodin-hybridized sulfonamide aminophosphates as novel potential membrane-perturbing and DNA-intercalating agents against Enterococcus faecalis” (Bioorg Med Chem Lett, 2022)
# Legend:
# Format in all cases: functional
# [1] = tested on: Escherichia coli; assay: Antibacterial activity against Escherichia coli ATCC 25922 assessed as inhibition of bacterial growth measured after 24 hrs by CLSI based broth microdilution method
# [2] = tested on: Pseudomonas aeruginosa; assay: Antibacterial activity against Pseudomonas aeruginosa ATCC 27853 assessed as inhibition of bacterial growth measured after 24 hrs by CLSI based broth microdilution method
# [3] = tested on: Pseudomonas aeruginosa; assay: Antibacterial activity against Pseudomonas aeruginosa assessed as inhibition of bacterial growth measured after 24 hrs by CLSI based broth microdilution method
# [4] = tested on: Acinetobacter baumannii; assay: Antibacterial activity against Acinetobacter baumannii assessed as inhibition of bacterial growth measured after 24 hrs by CLSI based broth microdilution method
# [5] = tested on: Escherichia coli; assay: Antibacterial activity against Escherichia coli assessed as inhibition of bacterial growth measured after 24 hrs by CLSI based broth microdilution method
# [6] = tested on: Klebsiella pneumoniae; assay: Antibacterial activity against Klebsiella pneumoniae assessed as inhibition of bacterial growth measured after 24 hrs by CLSI based broth microdilution method
# [7] = tested on: Staphylococcus aureus; assay: Antibacterial activity against Staphylococcus aureus ATCC 25923 assessed as inhibition of bacterial growth measured after 24 hrs by CLSI based broth microdilution method
# [8] = tested on: Staphylococcus aureus; assay: Antibacterial activity against methicillin-resistant Staphylococcus aureus N315 assessed as inhibition of bacterial growth measured after 24 hrs by CLSI based broth microdilution method
# [9] = tested on: Enterococcus faecalis; assay: Antibacterial activity against Enterococcus faecalis assessed as inhibition of bacterial growth measured after 24 hrs by CLSI based broth microdilution method
# [10] = tested on: Staphylococcus aureus; assay: Antibacterial activity against Staphylococcus aureus assessed as inhibition of bacterial growth measured after 24 hrs by CLSI based broth microdilution method
Compound,MIC [1],MIC [2],MIC [3],MIC [4],MIC [5],MIC [6],MIC [7],MIC [8],MIC [9],MIC [10]
Cc1noc(NS(=O)(=O)c2ccc(NC(c3cc(O)c4c(c3)C(=O)c3cccc(O)c3C4=O)P(=O)(Oc3ccccc3)Oc3ccccc3)cc2)c1C (stereo not given),64 µg/mL,64 µg/mL,32 µg/mL,128 µg/mL,64 µg/mL,128 µg/mL,16 µg/mL,32 µg/mL,64 µg/mL,16 µg/mL
CCOP(=O)(OCC)C(Nc1ccc(S(=O)(=O)Nc2nccs2)cc1)c1cc(O)c2c(c1)C(=O)c1cccc(O)c1C2=O (stereo not given),256 µg/mL,128 µg/mL,256 µg/mL,64 µg/mL,256 µg/mL,256 µg/mL,256 µg/mL,256 µg/mL,0.5 µg/mL,16 µg/mL
COP(=O)(OC)C(Nc1ccc(S(N)(=O)=O)cc1)c1cc(O)c2c(c1)C(=O)c1cccc(O)c1C2=O (stereo not given),8 µg/mL,32 µg/mL,64 µg/mL,0.5 µg/mL,2 µg/mL,128 µg/mL,128 µg/mL,16 µg/mL,0.25 µg/mL,32 µg/mL
Nc1ccc(S(=O)(=O)Nc2ncccn2)cc1 [SULFADIAZINE],32 µg/mL,64 µg/mL,8 µg/mL,32 µg/mL,64 µg/mL,256 µg/mL,16 µg/mL,64 µg/mL,16 µg/mL,64 µg/mL
Cc1cc(NS(=O)(=O)c2ccc(N)cc2)no1 [SULFAMETHOXAZOLE],4 µg/mL,2 µg/mL,4 µg/mL,4 µg/mL,64 µg/mL,8 µg/mL,32 µg/mL,4 µg/mL,16 µg/mL,8 µg/mL
Nc1ccc(S(N)(=O)=O)cc1 [SULFANILAMIDE],4 µg/mL,2 µg/mL,4 µg/mL,4 µg/mL,64 µg/mL,8 µg/mL,256 µg/mL,256 µg/mL,128 µg/mL,128 µg/mL
O=C1c2cccc(O)c2C(=O)c2c(O)cc(C(Nc3ccc(S(=O)(=O)Nc4ncccn4)cc3)P(=O)(Oc3ccccc3)Oc3ccccc3)cc21 (stereo not given),32 µg/mL,64 µg/mL,128 µg/mL,64 µg/mL,64 µg/mL,128 µg/mL,256 µg/mL,64 µg/mL,64 µg/mL,32 µg/mL
CCn1cc(C(=O)O)c(=O)c2cc(F)c(N3CCNCC3)cc21 [NORFLOXACIN],4 µg/mL,2 µg/mL,2 µg/mL,8 µg/mL,8 µg/mL,4 µg/mL,4 µg/mL,8 µg/mL,4 µg/mL,8 µg/mL
CCCCOP(=O)(OCCCC)C(Nc1ccc(S(N)(=O)=O)cc1)c1cc(O)c2c(c1)C(=O)c1cccc(O)c1C2=O (stereo not given),256 µg/mL,256 µg/mL,256 µg/mL,256 µg/mL,256 µg/mL,256 µg/mL,256 µg/mL,64 µg/mL,128 µg/mL,256 µg/mL
Cc1cc(NS(=O)(=O)c2ccc(NC(c3cc(O)c4c(c3)C(=O)c3cccc(O)c3C4=O)P(=O)(Oc3ccccc3)Oc3ccccc3)cc2)no1 (stereo not given),32 µg/mL,256 µg/mL,64 µg/mL,64 µg/mL,64 µg/mL,128 µg/mL,256 µg/mL,64 µg/mL,64 µg/mL,64 µg/mL
COP(=O)(OC)C(Nc1ccc(S(=O)(=O)Nc2nccs2)cc1)c1cc(O)c2c(c1)C(=O)c1cccc(O)c1C2=O (stereo not given),64 µg/mL,64 µg/mL,16 µg/mL,8 µg/mL,1 µg/mL,2 µg/mL,32 µg/mL,64 µg/mL,32 µg/mL,8 µg/mL
O=C1c2cccc(O)c2C(=O)c2c(O)cc(CO)cc21 [ALOE-EMODIN],4 µg/mL,4 µg/mL,16 µg/mL,8 µg/mL,8 µg/mL,64 µg/mL,8 µg/mL,16 µg/mL,32 µg/mL,64 µg/mL
CCCCOP(=O)(OCCCC)C(Nc1ccc(S(=O)(=O)Nc2nccs2)cc1)c1cc(O)c2c(c1)C(=O)c1cccc(O)c1C2=O (stereo not given),256 µg/mL,256 µg/mL,256 µg/mL,256 µg/mL,256 µg/mL,256 µg/mL,256 µg/mL,256 µg/mL,256 µg/mL,256 µg/mL
Cc1noc(NS(=O)(=O)c2ccc(NC(c3cc(O)c4c(c3)C(=O)c3cccc(O)c3C4=O)P(=O)(OC(C)C)OC(C)C)cc2)c1C (stereo not given),0.5 µg/mL,256 µg/mL,2 µg/mL,2 µg/mL,64 µg/mL,2 µg/mL,2 µg/mL,0.25 µg/mL,64 µg/mL,2 µg/mL
CC(C)OP(=O)(OC(C)C)C(Nc1ccc(S(=O)(=O)Nc2nccs2)cc1)c1cc(O)c2c(c1)C(=O)c1cccc(O)c1C2=O (stereo not given),128 µg/mL,128 µg/mL,256 µg/mL,256 µg/mL,256 µg/mL,256 µg/mL,32 µg/mL,256 µg/mL,256 µg/mL,256 µg/mL
CCCCOP(=O)(OCCCC)C(Nc1ccc(S(=O)(=O)Nc2cc(C)on2)cc1)c1cc(O)c2c(c1)C(=O)c1cccc(O)c1C2=O (stereo not given),64 µg/mL,64 µg/mL,64 µg/mL,64 µg/mL,128 µg/mL,256 µg/mL,128 µg/mL,16 µg/mL,256 µg/mL,128 µg/mL
Nc1ccc(S(=O)(=O)Nc2nccs2)cc1 [SULFATHIAZOLE],64 µg/mL,64 µg/mL,64 µg/mL,32 µg/mL,64 µg/mL,256 µg/mL,64 µg/mL,128 µg/mL,64 µg/mL,128 µg/mL
Cc1cc(NS(=O)(=O)c2ccc(NC(c3cc(O)c4c(c3)C(=O)c3cccc(O)c3C4=O)P(=O)(OC(C)C)OC(C)C)cc2)no1 (stereo not given),64 µg/mL,8 µg/mL,32 µg/mL,0.5 µg/mL,64 µg/mL,256 µg/mL,256 µg/mL,128 µg/mL,32 µg/mL,128 µg/mL
COP(=O)(OC)C(Nc1ccc(S(=O)(=O)Nc2onc(C)c2C)cc1)c1cc(O)c2c(c1)C(=O)c1cccc(O)c1C2=O (stereo not given),0.5 µg/mL,256 µg/mL,8 µg/mL,4 µg/mL,128 µg/mL,32 µg/mL,8 µg/mL,2 µg/mL,64 µg/mL,2 µg/mL
NS(=O)(=O)c1ccc(NC(c2cc(O)c3c(c2)C(=O)c2cccc(O)c2C3=O)P(=O)(Oc2ccccc2)Oc2ccccc2)cc1 (stereo not given),32 µg/mL,32 µg/mL,128 µg/mL,16 µg/mL,64 µg/mL,128 µg/mL,256 µg/mL,16 µg/mL,32 µg/mL,64 µg/mL
COP(=O)(OC)C(Nc1ccc(S(=O)(=O)Nc2cc(C)on2)cc1)c1cc(O)c2c(c1)C(=O)c1cccc(O)c1C2=O (stereo not given),64 µg/mL,64 µg/mL,16 µg/mL,128 µg/mL,16 µg/mL,32 µg/mL,0.5 µg/mL,128 µg/mL,64 µg/mL,8 µg/mL
